Data on seven compounds can be found in patent US10525056B2, “Procaspase-activating compounds and methods” (The Board of Trustees of the University of Illinois, priority 2011, dated 2020).

Series [1] concerns U-937 human lymphoma cells. Kind of series: 72 Hour IC50 Cell Death Assay (sulforhodamine B). It counts as cell-based. The following applies: read-out: 72-hour IC50 (μM), U-937 cells, 72 h treatment, average ± SEM of three experiments. As to the method: U-937 human lymphoma cells were plated into the wells of 96 well plate at a density of 15,000 cells per well in 99 μL of RPMI 1640 growth media with 10% FBS and 1% pen-strep. To each well was added 1 μL of compound stock solutions in DMSO at varying concentrations such that the cells were treated with concentrations between 0 μM and 100 μM compound. Each concentration was tested in quintuplicate per plate. In each plate 5 wells received 20 μM doxorubicin as a positive death control and 5 wells received […] as a negative control.
After the 72 hour incubation period, the plates were analyzed using a Sulforhodamine B assay (Vichai and Kirtikara, Nat Protoc 2006, 1, 1112-1116). Specifically, to each well of the plate 25 μL of a 50% (w/v) solution of trichloroacetic acid in H2O was added and the plates were incubated for 4 hours at 4° C. The plates were then washed gently with water five times. The plates were allowed to air dry after which 100 μL of a 0.057% (w/v) Sulforhodamine B in a 1% (v/v) acetic acid solution was added to each well for 30 minutes at room temperature. The plates were gently washed 5 times with 1% (v/v) acetic acid and air dried. 200 μL of 10 mM Tris base (pH 10.4) was added to each well and the plates were placed on an orbital shaker for thirty minutes. The level of SRB was quantified fluorometrically at excitation and emission wavelengths 488 and 585 nm, respectively, on a Molecular Devices plate reader and the percent cell death calculated and normalized to the positive control (100% cell death) and the negative control (0% cell death). The percent cell death was averaged for each compound concentration and plotted as a function of compound concentration. The data were fit to a logistical dose response curve using Table curve 2D and the IC50 value was calculated. The experiment was repeated three times and the average of the calculated IC50 values was reported. The standard error of the mean (SEM) was determined and reported for the triplicate experiments.

A further series deals with U-937 cells. Kind of series: Induction of apoptosis by hit compounds (Annexin V-FITC/propidium iodide flow cytometry). It counts as cell-based. Conditions: Homo sapiens, 7.5 μM compound, 24 hours. The method, then:
U-937 Cells (1 mL of 6×10^5 cells/mL) were treated with 10 μL of 750 μM DMSO solutions of the compounds to achieve a final concentration of 7.5 μM. […] The cells were harvested via centrifugation (200 g for 5 minutes), washed with PBS (2 mL), and resuspended in 450 μL Annexin V Binding Buffer. To each sample was added 3.5 μL of FITC conjugated Annexin V stain (Southern Biotech) and 3.5 μL of propidium iodide (Sigma) to a final concentration of 50 μg/mL. Cell populations were analyzed on a Benton Dickinson LSR II cell flow cytometer.

Series [2] has as its system U-937 human lymphoma cells. As to the kind of experiment: Cell death assay for initial screen (Annexin V-FITC/propidium iodide flow cytometry). Type of series: cell-based. The following applies: U-937 cells, 20 μM compound, 24 hours. The method, then:
Apoptotic cell death was assessed by flow cytometry, using Annexin V-FITC/propidium iodide staining.
Compound (2 μL of a 10 mM DMSO solution) was added in singlet by direct addition to a well containing 998 μL U-937 cells (1×10^6) in RPMI 1640 media (10% FBS) at a final compound concentration of 20 μM. […] The cells were double stained with FITC-Annexin V and propidium iodide and a cell population of at least 10,000 events was collected by the LSR II flow cytometer. Percent viable cells (Annexin V—negative, propidium iodide—negative) were determined using FCS Express software.
Background: Flow cytometry measures light scatter and fluorescence of single cells or particles in a stream.

The conditions of series [3]: mice, for 48 hours; cited from earlier work.
The conditions of series [4]: research dogs, for 48 hours; cited from earlier work.

Where two headings read alike, the source gives them in different places.

Consider `C=CCc1cccc(/C=N/NC(=O)CN2CCN(Cc3ccc(C(C)(C)C)cc3)CC2)c1O` [3{20,24}, N′-(3-allyl-2-hydroxybenzylidene)-2-(4-(4-(tert-butyl)benzyl)piperazin-1-yl)acetohydrazide], for which the IC50 in series [1] is 0.9 ± 0.03 µM. The compound also registered a cytotoxicity at 7.5 µM in the series on U-937 cells of 83%.
Take `COc1ccc(OC)c(CN2CCN(CC(=O)N/N=C/c3cc(C(C)(C)C)cc(C(C)(C)C)c3O)CC2)c1` [3{4,7}, N′-(3,5-di-tert-butyl-2-hydroxybenzylidene)-2-(4-(2,5-dimethoxybenzyl)piperazin-1-yl)acetohydrazide]: the IC50 in series [1] was determined as 1.6 ± 0.2 µM. In addition, the cytotoxicity at 7.5 µM in the series with U-937 cells was found to be 53%.
As for `C=CCc1cccc(/C=N/NC(=O)CN2CCN(Cc3ccccc3)CC2)c1O` [PAC-1], the 50% inhibitory concentration (IC50) in series [1] amounted to 3.8 ± 0.4 µM. Also, in series [2], the “% cell death” value is around 50%. The cytotoxicity at 7.5 µM in the series on U-937 cells turned out to be 21%. The “serum concentration at doses that can be safely administered” value in series [3] and in series [4] was around 10 µM in each case.
As to `CC(C)(C)c1cc(/C=N/NC(=O)CN2CCN(Cc3ccc4ccccc4c3)CC2)c(O)c(C(C)(C)C)c1` [3{25,7}, N′-(3,5-di-tert-butyl-2-hydroxybenzylidene)-2-(4-(naphthalen-2-ylmethyl)piperazin-1-yl)acetohydrazide], the IC50 in series [1] came to 1 ± 0.04 µM. Also, in the series with U-937 cells, the cytotoxicity at 7.5 µM was found to be 50%.
Take `CC(C)(C)c1cc(/C=N/NC(=O)CN2CCN(Cc3ccc(OCc4ccccc4)cc3)CC2)c(O)c(C(C)(C)C)c1` [3{18,7}, 2-(4-(4-(benzyloxy)benzyl)piperazin-1-yl)-N′-(3,5-di-tert-butyl-2-hydroxybenzylidene)acetohydrazide]: in series [1], the 50% inhibitory concentration (IC50) amounted to 1.4 ± 0.2 µM. Also, the cytotoxicity at 7.5 µM in the series on U-937 cells is 97%.
Regarding `COc1ccc(CN2CCN(CC(=O)N/N=C/c3cc(C(C)(C)C)cc(C(C)(C)C)c3O)CC2)cc1` [3{2,7}, N′-(3,5-di-tert-butyl-2-hydroxybenzylidene)-2-(4-(4-methoxybenzyl)piperazin-1-yl)acetohydrazide], in series [1], the 50% inhibitory concentration (IC50) is 1.8 ± 0.2 µM. Further, the cytotoxicity at 7.5 µM with U-937 cells was determined as 90%.
For `CCc1ccc(CN2CCN(CC(=O)N/N=C/c3cc(C(C)(C)C)cc(C(C)(C)C)c3O)CC2)cc1` [3{28,7}, N′-(3,5-di-tert-butyl-2-hydroxybenzylidene)-2-(4-(4-ethylbenzyl)piperazin-1-yl)acetohydrazide] the same measures were 2 ± 0.2 µM and 70%.

In general, IC50 refers to the concentration that gives 50% inhibition.
